{"source": "patent US9182397B2", "about": "“Immunoassay for detecting antibiotics” (DSM IP ASSETS B.V., priority 2011, dated 2015)", "test_system": "Penicillin binding protein purified from Bacillus stearothermophilus", "assay": "Sensitivity of the test device for different antibiotics (Example 23)", "set-up": "key: 0: no intensity; 1: low intensity; 2: medium intensity; 3: high intensity", "experimental": "A nitrocellulose HF90 membrane (Millipore; length 25 mm) was used as a detection region. The membrane was glued to a polystyrene laminated card (thickness 0.254 mm) 8 mm from the proximal end of the card. Next, the detection zone and control zone were applied onto the nitrocellulose membrane. The detection zone was applied by dispensing 1 mg/ml of a 7ACA-spacer-BSA conjugate in 20 mM KPO4-buffer (pH 7.5) with a Biodot Dispense workstation XYZ 3050 with frontline at 0.2 μl/cm. The control zone was applied by dispensing 0.15 mg/ml of an anti-IgY antibody in 20 mM KPO4-buffer (pH 7.5) comprising 0.675 mg/ml BSA, 5% w/v saccharose and 20 mM NaCl with a Biodot Dispense workstation XYZ 3050 with frontline at 0.8 μl/cm. After drying of the zones, the nitrocellulose membrane was blocked by spraying a solution comprising 10 mM Tris buffer (pH 8) comprising 2% w/v BSA and 0.05% w/v Tween-20 using a Biodot Dispense workstation XYZ 3050 with airjet 3×. The solution was sprayed onto the membrane at a distance of 2 mm below the detection zone. Thereafter, the sample receiving region (VF2 membrane from Millipore; length 1 cm) was glued at the proximal end of the card overlapping 2 mm with the nitrocellulose membrane. The absorbing region (10038 membrane from Millipore; length 20 mm) was glued at the distal end of the card with an overlap of 2 mm on the nitrocellulose membrane. The obtained cards were dried at 37° C. in a dry atmosphere (0% relative humidity). The card was cut in strips of 5.2 mm width and kept at a dry atmosphere (0% relative humidity).\nStreptavidin-coated gold particles were synthesized by reacting colloidal gold (diameter 40 nm; 1 OD/ml) with 10 μg/ml streptavidin. Next, the obtained solution was concentrated by tangential flow filtration, washed and stored in a Tris buffer (pH 8) including NaCN. Penicillin binding protein purified from Bacillus stearothermophilus was biotinylated (1:4) with D-biotinyl-epsilon-aminocaproic acid-N-hydroxysuccinimide ester. Next, the penicillin binding protein-gold conjugate was synthesized by reacting 1.5 μg biotinylated penicillin binding protein with 1 OD streptavidin-coated gold particles for 1 hour, followed by centrifugation at 10,000×g for 5 minutes and resuspension of the obtained pellet in 45 mM bicarbonate buffer comprising 0.1% w/v Triton X-100 (pH 9.6).\nThereafter, 140-200 mOD of the penicillin binding protein-gold conjugate and 5-20 mOD of the IgY-gold conjugate was solubilized in 100 μl buffer (80 mM Tris buffer comprising 0.01% w/v Triton-X-100, 0.4% w/v BSA, 5% v/v glycerin and 2% w/v saccharose (pH 8.5)) and 0.75 μl of the solution was dispensed per tube and dried for 12 hours at 40° C. The obtained tubes were sealed.\n150 μl of spiked milk was added per tube containing the dried conjugates. The concentration of penicillin G in the added milk varied from 0 to 4 ng/g (tube 1: 0 ng/g; […]; tube 2: 2 ng/g; tube 3: 3 ng/g; and tube 4: 4 ng/g). The obtained liquid composition was incubated for 2 minutes at 64° C. in an incubator. A test device was put into the tube and incubated for 3 minutes at 64° C. in the incubator. The result was read by eye.\nThe test was done essentially as described in Example 3, with the proviso that different antibiotics at different concentrations were tested.", "data": [{"smiles": "CC1(C)S[C@@H]2[C@H](NC(=O)[C@H](N)c3ccc(O)cc3)C(=O)N2[C@H]1C(=O)O", "note": "[Amoxicillin]", "values": [{"measurement": "Intensity of detection zone", "setting": "Amoxicillin 3.3 ng/g in milk", "value": 2}, {"measurement": "Intensity of detection zone", "setting": "Amoxicillin 4.3 ng/g in milk", "value": 1}, {"measurement": "Intensity of detection zone", "setting": "Amoxicillin 5.3 ng/g in milk", "value": 1}, {"measurement": "Intensity of detection zone", "setting": "Amoxicillin 6.3 ng/g in milk", "value": 0}, {"measurement": "Intensity of detection zone", "setting": "Amoxicillin 7.3 ng/g in milk", "value": 0}]}, {"smiles": "CC1(C)S[C@@H]2[C@H](NC(=O)[C@H](N)c3ccccc3)C(=O)N2[C@H]1C(=O)O", "note": "[Ampicillin]", "values": [{"measurement": "Intensity of detection zone", "setting": "Ampicillin 5.3 ng/g in milk", "value": 2}, {"measurement": "Intensity of detection zone", "setting": "Ampicillin 6.9 ng/g in milk", "value": 1}, {"measurement": "Intensity of detection zone", "setting": "Ampicillin 8.5 ng/g in milk", "value": 0}, {"measurement": "Intensity of detection zone", "setting": "Ampicillin 10.1 ng/g in milk", "value": 0}, {"measurement": "Intensity of detection zone", "setting": "Ampicillin 11.7 ng/g in milk", "value": 0}]}, {"smiles": "CC1=C(C(=O)O)N2C(=O)[C@@H](NC(=O)[C@H](N)c3ccccc3)[C@H]2SC1", "note": "[Cefalexin]", "values": [{"measurement": "Intensity of detection zone", "setting": "Cefalexin 34.0 ng/g in milk", "value": 2}, {"measurement": "Intensity of detection zone", "setting": "Cefalexin 43.0 ng/g in milk", "value": 1}, {"measurement": "Intensity of detection zone", "setting": "Cefalexin 52.0 ng/g in milk", "value": 0}, {"measurement": "Intensity of detection zone", "setting": "Cefalexin 61.0 ng/g in milk", "value": 0}, {"measurement": "Intensity of detection zone", "setting": "Cefalexin 70.0 ng/g in milk", "value": 0}]}, {"smiles": "NC(=O)c1cc[n+](CC2=C(C(=O)[O-])N3C(=O)[C@@H](NC(=O)Cc4cccs4)[C@H]3SC2)cc1", "note": "[Cefalonium]", "values": [{"measurement": "Intensity of detection zone", "setting": "Cefalonium 3.2 ng/g in milk", "value": 2}, {"measurement": "Intensity of detection zone", "setting": "Cefalonium 4.0 ng/g in milk", "value": 1}, {"measurement": "Intensity of detection zone", "setting": "Cefalonium 4.8 ng/g in milk", "value": 0}, {"measurement": "Intensity of detection zone", "setting": "Cefalonium 5.6 ng/g in milk", "value": 0}, {"measurement": "Intensity of detection zone", "setting": "Cefalonium 6.4 ng/g in milk", "value": 0}]}, {"smiles": "Cc1nnc(SCC2=C(C(=O)O)N3C(=O)[C@@H](NC(=O)Cn4cnnn4)[C@H]3SC2)s1", "note": "[Cefazolin]", "values": [{"measurement": "Intensity of detection zone", "setting": "Cefazolin 10.0 ng/g in milk", "value": 2}, {"measurement": "Intensity of detection zone", "setting": "Cefazolin 12.5 ng/g in milk", "value": 1}, {"measurement": "Intensity of detection zone", "setting": "Cefazolin 15.0 ng/g in milk", "value": 0}, {"measurement": "Intensity of detection zone", "setting": "Cefazolin 17.5 ng/g in milk", "value": 0}, {"measurement": "Intensity of detection zone", "setting": "Cefazolin 20.0 ng/g in milk", "value": 0}]}, {"smiles": "CCN1CCN(C(=O)N[C@@H](C(=O)N[C@@H]2C(=O)N3C(C(=O)O)=C(CSc4nnnn4C)CS[C@H]23)c2ccc(O)cc2)C(=O)C1=O", "note": "[Cefoperazone]", "values": [{"measurement": "Intensity of detection zone", "setting": "Cefoperazone 4.0 ng/g in milk", "value": 2}, {"measurement": "Intensity of detection zone", "setting": "Cefoperazone 4.9 ng/g in milk", "value": 2}, {"measurement": "Intensity of detection zone", "setting": "Cefoperazone 5.8 ng/g in milk", "value": 1}, {"measurement": "Intensity of detection zone", "setting": "Cefoperazone 6.7 ng/g in milk", "value": 1}, {"measurement": "Intensity of detection zone", "setting": "Cefoperazone 7.6 ng/g in milk", "value": 0}]}, {"smiles": "CO/N=C(\\C(=O)N[C@@H]1C(=O)N2C(C(=O)[O-])=C(C[n+]3cccc4c3CCCC4)CS[C@H]12)c1csc(N)n1", "note": "[Cefquinome]", "values": [{"measurement": "Intensity of detection zone", "setting": "Cefquinome 12.5 ng/g in milk", "value": 2}, {"measurement": "Intensity of detection zone", "setting": "Cefquinome 15.8 ng/g in milk", "value": 1}, {"measurement": "Intensity of detection zone", "setting": "Cefquinome 19.1 ng/g in milk", "value": 0}, {"measurement": "Intensity of detection zone", "setting": "Cefquinome 22.4 ng/g in milk", "value": 0}, {"measurement": "Intensity of detection zone", "setting": "Cefquinome 25.7 ng/g in milk", "value": 0}]}, {"smiles": "CO/N=C(\\C(=O)N[C@@H]1C(=O)N2C(C(=O)O)=C(CSC(=O)c3ccco3)CS[C@H]12)c1csc(N)n1", "note": "[Ceftiofur]", "values": [{"measurement": "Intensity of detection zone", "setting": "Ceftiofur 4.0 ng/g in milk", "value": 2}, {"measurement": "Intensity of detection zone", "setting": "Ceftiofur 5.1 ng/g in milk", "value": 1}, {"measurement": "Intensity of detection zone", "setting": "Ceftiofur 6.2 ng/g in milk", "value": 0}, {"measurement": "Intensity of detection zone", "setting": "Ceftiofur 7.3 ng/g in milk", "value": 0}, {"measurement": "Intensity of detection zone", "setting": "Ceftiofur 8.4 ng/g in milk", "value": 0}]}, {"smiles": "Cc1onc(-c2ccccc2Cl)c1C(=O)N[C@@H]1C(=O)N2[C@@H]1SC(C)(C)[C@@H]2C(=O)O", "note": "[Cloxacillin]", "values": [{"measurement": "Intensity of detection zone", "setting": "Cloxacillin 32.5 ng/g in milk", "value": 1}, {"measurement": "Intensity of detection zone", "setting": "Cloxacillin 43.2 ng/g in milk", "value": 0}, {"measurement": "Intensity of detection zone", "setting": "Cloxacillin 53.9 ng/g in milk", "value": 0}, {"measurement": "Intensity of detection zone", "setting": "Cloxacillin 64.6 ng/g in milk", "value": 0}, {"measurement": "Intensity of detection zone", "setting": "Cloxacillin 75.3 ng/g in milk", "value": 0}]}, {"smiles": "Cc1onc(-c2c(Cl)cccc2Cl)c1C(=O)N[C@@H]1C(=O)N2[C@@H]1SC(C)(C)[C@@H]2C(=O)O", "note": "[Dicloxacillin]", "values": [{"measurement": "Intensity of detection zone", "setting": "Dicloxacillin 15.0 ng/g in milk", "value": 3}, {"measurement": "Intensity of detection zone", "setting": "Dicloxacillin 20.0 ng/g in milk", "value": 2}, {"measurement": "Intensity of detection zone", "setting": "Dicloxacillin 25.0 ng/g in milk", "value": 2}, {"measurement": "Intensity of detection zone", "setting": "Dicloxacillin 30.0 ng/g in milk", "value": 1}, {"measurement": "Intensity of detection zone", "setting": "Dicloxacillin 35.0 ng/g in milk", "value": 0}]}, {"smiles": "CCOc1ccc2ccccc2c1C(=O)N[C@@H]1C(=O)N2[C@@H]1SC(C)(C)[C@@H]2C(=O)O", "note": "[Nafcillin]", "values": [{"measurement": "Intensity of detection zone", "setting": "Nafcillin 40.0 ng/g in milk", "value": 3}, {"measurement": "Intensity of detection zone", "setting": "Nafcillin 50.5 ng/g in milk", "value": 2}, {"measurement": "Intensity of detection zone", "setting": "Nafcillin 61.0 ng/g in milk", "value": 1}, {"measurement": "Intensity of detection zone", "setting": "Nafcillin 71.5 ng/g in milk", "value": 0}, {"measurement": "Intensity of detection zone", "setting": "Nafcillin 82.0 ng/g in milk", "value": 0}]}, {"smiles": "Cc1onc(-c2ccccc2)c1C(=O)N[C@@H]1C(=O)N2[C@@H]1SC(C)(C)[C@@H]2C(=O)O", "note": "[Oxacillin]", "values": [{"measurement": "Intensity of detection zone", "setting": "Oxacillin 27.0 ng/g in milk", "value": 2}, {"measurement": "Intensity of detection zone", "setting": "Oxacillin 34.8 ng/g in milk", "value": 2}, {"measurement": "Intensity of detection zone", "setting": "Oxacillin 42.6 ng/g in milk", "value": 1}, {"measurement": "Intensity of detection zone", "setting": "Oxacillin 50.4 ng/g in milk", "value": 0}, {"measurement": "Intensity of detection zone", "setting": "Oxacillin 58.2 ng/g in milk", "value": 0}]}]}
